# In US7229990B2, “Bicyclic heteroaromatic compounds” (N.V. Organon, priority 2000, dated 2007):
# Biological target: T1, human LH receptor (Homo sapiens, UniProt P22888)
# T1 construct: expressed in transfected cells; host or cells: Chinese Hamster Ovary (CHO) cells, stably transfected; cotransfected with a CRE-luciferase reporter
# Experiment: CHO-LH in vitro bioactivity (CRE-luciferase reporter, LH agonistic activity)
# Type: cell-based
# Conditions: not given
# Protocol: LH agonistic activity of compounds was tested in Chinese Hamster Ovary (CHO) cells stably transfected with the human LH receptor and cotransfected with a cAMP responsive, element (CRE)/promotor directing the expression of a firefly luciferase reporter gene. Binding of ligand to the Gs-coupled LH receptor will result in an increase of cAMP, which in turn will induce an increased transactivation of the luciferase reporter construct. The luciferase signal was quantified using a luminescence counter. For test compounds, EC50 values (concentration of test compound causing half-maximal (50%) stimulation) were calculated. For that purpose the software program GraphPad PRISM, version 3.0 (GraphPad software Inc., San Diego) was used.
# T1 sequence (P22888 27-699): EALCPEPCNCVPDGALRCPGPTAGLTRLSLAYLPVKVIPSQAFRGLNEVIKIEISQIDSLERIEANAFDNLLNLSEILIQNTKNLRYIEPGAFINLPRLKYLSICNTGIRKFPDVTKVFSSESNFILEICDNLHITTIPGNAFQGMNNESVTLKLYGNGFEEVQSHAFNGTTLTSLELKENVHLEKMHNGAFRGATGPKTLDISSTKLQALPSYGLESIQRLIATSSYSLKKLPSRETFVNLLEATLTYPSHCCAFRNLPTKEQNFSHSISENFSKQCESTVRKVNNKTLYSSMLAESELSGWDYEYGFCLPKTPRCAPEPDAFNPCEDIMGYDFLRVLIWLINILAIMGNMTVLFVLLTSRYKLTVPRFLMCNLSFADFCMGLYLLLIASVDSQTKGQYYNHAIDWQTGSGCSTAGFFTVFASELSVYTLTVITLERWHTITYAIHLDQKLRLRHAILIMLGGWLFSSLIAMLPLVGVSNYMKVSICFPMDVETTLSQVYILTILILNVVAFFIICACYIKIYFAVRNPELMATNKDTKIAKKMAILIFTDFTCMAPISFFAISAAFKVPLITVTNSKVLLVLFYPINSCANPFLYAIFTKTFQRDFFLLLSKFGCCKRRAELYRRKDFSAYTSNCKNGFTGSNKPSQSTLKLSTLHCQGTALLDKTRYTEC
row,Compound,EC50 [nM]
1,CCN(CC)C(=O)Oc1cccc(-c2nc(SC)nc3sc(C(=O)NC(C)(C)C)c(N)c23)c1 [Example 7],< 10

# Same assay, conditions: CHO cells stably transfected with the human LH receptor and cotransfected with CRE/promotor firefly luciferase reporter; luciferase signal; read-out: EC50 value (concentration of test compound causing half-maximal (50%) stimulation)
row,EC50 [nM],Compound
1,< 10,"COC(=O)Nc1cccc(-c2nc(SC)nc3sc(C(=O)NC(C)(C)C)c(N)c23)c1 [Example 15, tert-Butyl 5-amino-2-methylthio-4-(3-(methoxycarbonylamino)-phenyl)-thieno[2,3-]pyrimidine-6-carboxamide]"
2,< 10,"C=CCOC(=O)Nc1cccc(-c2nc(SC)nc3sc(C(=O)NC(C)(C)C)c(N)c23)c1 [Example 16, tert-Butyl 5-amino-2-methylthio-4-(3-(allyloxycarbonylamino)-phenyl)-thieno[2,3-d]pyrimidine-6-carboxamide]"
3,< 10,"CCOC(=O)Nc1cccc(-c2nc(SC)nc3sc(C(=O)NC(C)(C)C)c(N)c23)c1 [Example 18, tert-Butyl 5-amino-2-methylthio-4-(3-(ethoxycarbonylamino)-phenyl)-thieno[2,3-d]pyrimidine-6-carboxamide]"
4,< 10,CSc1nc(-c2cccc(NC(=O)N3CCOCC3)c2)c2c(N)c(C(=O)NC(C)(C)C)sc2n1 [Example 21]
5,< 10,"CSc1nc(-c2cccc(NC(=O)N3CC=CCC3)c2)c2c(N)c(C(=O)NC(C)(C)C)sc2n1 [Example 23, tert-Butyl 5-amino-2-methylthio-4-(3-(1,2,3,6-tetrahydropyridinocarbonylamino)-phenyl)-thieno[2,3-d]pyrimidine-6-carboxamide]"
6,< 10,"CN(C)C(=O)Nc1cccc(-c2nc(-c3ccccc3)nc3sc(C(=O)NC(C)(C)C)c(N)c23)c1 [Example 32, tert-Butyl 5-amino-2-phenyl-4-(3-((N,N-dimethylamino)-carbonylamino)-phenyl)-thieno[2,3-d]pyrimidine-6-carboxamide]"
